# Read-outs that look alike come from different tables or passages of the source.
# Tests used:
# 5-HT2B receptor = target: T1, 5-HT2B receptor (Homo sapiens, UniProt P41595); assay: cell-based
# T1 construct: host or cells: CHO-K1
# 5-HT2A receptor = target: T2, 5-HT2A receptor (Homo sapiens, UniProt P28223); assay: FLIPR Ca2+ flux functional assay, 5-HT2A; type: cell-based
# T2 construct: host or cells: HEK293
# 5-HT2C receptor = target: T3, 5-HT2C receptor (Homo sapiens, UniProt P28335); assay: cell-based
# T3 construct: host or cells: HEK293
# T3 sequence (P28335 33-458): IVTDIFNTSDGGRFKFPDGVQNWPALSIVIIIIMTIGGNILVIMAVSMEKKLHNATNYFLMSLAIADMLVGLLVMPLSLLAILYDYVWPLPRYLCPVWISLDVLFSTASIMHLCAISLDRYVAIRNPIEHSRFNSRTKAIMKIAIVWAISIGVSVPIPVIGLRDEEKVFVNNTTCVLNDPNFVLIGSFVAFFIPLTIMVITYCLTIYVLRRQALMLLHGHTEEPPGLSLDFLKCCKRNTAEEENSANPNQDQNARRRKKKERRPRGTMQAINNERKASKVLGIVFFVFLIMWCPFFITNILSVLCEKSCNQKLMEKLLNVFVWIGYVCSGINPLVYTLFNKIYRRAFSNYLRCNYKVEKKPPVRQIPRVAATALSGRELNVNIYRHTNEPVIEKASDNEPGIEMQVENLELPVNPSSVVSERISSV
# [1] = agonist activity, Ca2+ flux, CHO-K1 cells
# [2] = agonist activity, Ca2+ flux, HEK293 cells
# [3] = agonist activity, Ca2+ flux, CHO-K1 cells, read-out: 5-HT2B EC50
# [4] = agonist activity, Ca2+ flux, HEK293 cells, read-out: 5-HT2A EC50
# [5] = agonist activity, Ca2+ flux, HEK293 cells, read-out: 5-HT2C EC50
# T2 sequence (P28223 whole entry): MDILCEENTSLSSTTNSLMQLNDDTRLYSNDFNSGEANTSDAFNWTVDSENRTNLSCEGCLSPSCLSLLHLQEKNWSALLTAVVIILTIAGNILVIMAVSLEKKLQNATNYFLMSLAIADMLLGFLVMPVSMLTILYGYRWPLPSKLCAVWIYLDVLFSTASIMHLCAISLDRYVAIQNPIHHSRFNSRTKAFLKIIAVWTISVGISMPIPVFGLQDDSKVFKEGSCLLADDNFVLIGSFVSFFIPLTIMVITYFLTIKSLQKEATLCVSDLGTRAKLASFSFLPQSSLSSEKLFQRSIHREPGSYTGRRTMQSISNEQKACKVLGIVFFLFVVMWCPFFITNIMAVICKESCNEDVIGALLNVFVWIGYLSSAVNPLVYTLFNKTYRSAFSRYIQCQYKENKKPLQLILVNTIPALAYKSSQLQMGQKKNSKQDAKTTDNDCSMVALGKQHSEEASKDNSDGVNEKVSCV
# T1 sequence (P41595 whole entry): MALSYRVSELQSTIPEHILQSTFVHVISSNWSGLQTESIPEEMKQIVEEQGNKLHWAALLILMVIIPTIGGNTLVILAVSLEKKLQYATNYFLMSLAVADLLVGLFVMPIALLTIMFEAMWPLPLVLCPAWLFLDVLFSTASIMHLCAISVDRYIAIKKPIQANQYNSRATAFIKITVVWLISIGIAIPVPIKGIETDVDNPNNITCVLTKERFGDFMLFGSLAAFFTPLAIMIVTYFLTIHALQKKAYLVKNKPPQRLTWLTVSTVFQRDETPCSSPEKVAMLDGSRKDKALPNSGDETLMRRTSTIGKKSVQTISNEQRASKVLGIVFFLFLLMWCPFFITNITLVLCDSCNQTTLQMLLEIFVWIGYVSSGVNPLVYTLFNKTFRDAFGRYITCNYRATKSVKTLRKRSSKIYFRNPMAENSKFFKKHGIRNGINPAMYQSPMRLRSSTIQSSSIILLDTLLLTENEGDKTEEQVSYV
Structure (SMILES),EC50 (5-HT2B receptor),Emax (5-HT2B receptor; [1]),EC50 (5-HT2A receptor),Emax (5-HT2A receptor; [2]),EC50 (5-HT2C receptor),Emax (5-HT2C receptor; [2]),EC50 (5-HT2B receptor; [3]),EC50 (5-HT2A receptor; [4]),EC50 (5-HT2C receptor; [5])
"CCN(CC)CCc1c[nH]c2ccc3oc(C)nc3c12 [Example P-134, N,N-diethyl-2-(2-methyl-6H-oxazolo[4,5-e]indol-8-yl)ethan-1-amine]",59.9 nM,56.4%,20.3 nM,77.5%,429 nM,91.3%,–,–,–
"Cc1nc2c(ccc3[nH]cc(CCN(C(C)C)C(C)C)c32)o1 [Example P-135, N-isopropyl-N-(2-(2-methyl-6H-oxazolo[4,5-e]indol-8-yl)ethyl)propan-2-amine]",–,91.3%,–,78.3%,–,99.2%,31.4 nM,25.1 nM,2070 nM
"CN(C)CCc1c[nH]c2ccc(F)c(F)c12 [Example P-142, 2-(4,5-difluoro-1H-indol-3-yl)-N,N-dimethylethan-1-amine]",–,2.92%,–,70%,–,118%,–,–,–
"CCN(CC)CCc1c[nH]c2ccc(F)c(F)c12 [Example P-145, 2-(4,5-difluoro-1H-indol-3-yl)-N,N-diethylethan-1-amine]",–,51.5%,–,98.5%,–,72.3%,23.3 nM,10.6 nM,102 nM
"CC(C)N(CCc1c[nH]c2ccc(F)c(F)c12)C(C)C [Example P-146, N-(2-(4,5-difluoro-1H-indol-3-yl)ethyl)-N-isopropylpropan-2-amine]",–,155%,–,98.4%,–,93.1%,21.4 nM,10.1 nM,25.4 nM
"CN(C)CCc1c[nH]c2cc(F)cc(F)c12 [Example P-147, 2-(4,6-difluoro-1H-indol-3-yl)-N,N-dimethylethan-1-amine]",–,15.3%,–,91.6%,–,15.3%,≥ 10000 nM,29.2 nM,–
"CCN(C)CCc1c[nH]c2cc(F)cc(F)c12 [Example P-148, 2-(4,6-difluoro-1H-indol-3-yl)-N-ethyl-N-methylethan-1-amine]",–,35.6%,–,78.9%,–,35.6%,≥ 10000 nM,51.4 nM,–
"CC(C)N(C)CCc1c[nH]c2cc(F)cc(F)c12 [Example P-149, N-(2-(4,6-difluoro-1H-indol-3-yl)ethyl)-N-methylpropan-2-amine]",–,30.1%,–,66.8%,–,30.1%,≥ 10000 nM,52.4 nM,–
"CN(C)CCc1c[nH]c2cc(F)c(F)cc12 [Example P-153, 2-(5,6-difluoro-1H-indol-3-yl)-N,N-dimethylethan-1-amine]",–,10.6%,–,74.8%,–,93.6%,> 10000 nM,29.5 nM,5.35 nM
"CCN(C)CCc1c[nH]c2cc(F)c(F)cc12 [Example P-154, 2-(5,6-difluoro-1H-indol-3-yl)-N-ethyl-N-methylethan-1-amine]",–,17.6%,–,92.4%,–,102%,≥ 10000 nM,14.8 nM,24.9 nM
"CC(C)N(C)CCc1c[nH]c2cc(F)c(F)cc12 [Example P-155, N-(2-(5,6-difluoro-1H-indol-3-yl)ethyl)-N-methylpropan-2-amine]",–,45.4%,–,73.4%,–,83.7%,≥ 10000 nM,10.4 nM,50.7 nM
"CN(C)CCc1c[nH]c2c(F)cc(F)cc12 [Example P-156, 2-(5,7-difluoro-1H-indol-3-yl)-N,N-dimethylethan-1-amine]",–,-4.13%,–,48%,–,85.2%,> 10000 nM,41.1 nM,11.3 nM
"CN(C)CCc1c[nH]c2c(F)c(F)ccc12 [Example P-159, 2-(6,7-difluoro-1H-indol-3-yl)-N,N-dimethylethan-1-amine]",–,3.79%,–,62%,–,99.3%,> 10000 nM,28.6 nM,36.5 nM
"CC(C)N(C)CCc1c[nH]c2c(F)c(F)ccc12 [Example P-161, N-(2-(6,7-difluoro-1H-indol-3-yl)ethyl)-N-methylpropan-2-amine]",–,1.6%,–,48%,–,80.9%,> 10000 nM,54.8 nM,418 nM

# From patent US20250101038A1, “COMPOUNDS” (priority 2021, published 2025)
